Experimental data taken from US20070128217A1 (priority 2003, published 2007).

Tests used:
[1] = tested on: antibodies in sera from SARS patients (sera 1a, 1b, 2, 6, 37, 62, London, SARS-yellow, SARS-green); assay type: binding, human; design: Binding of serum 6 to linear peptides of protein X1 of SARS-CoV Urbani / Binding of serum 37 to linear peptides of protein X1 of SARS-CoV Urbani / Binding of serum 6 to looped/cyclic peptide (PEPSCAN-ELISA) / Binding of serum 37 to looped/cyclic peptide (PEPSCAN-ELISA) / Binding of serum 37 to looped/cyclic peptides of protein X1 of SARS-CoV Urbani / Binding of serum 6 to linear peptides of protein X2 / Binding of serum 37 to linear peptides of protein X2 / Binding of serum 37 to looped/cyclic peptides of protein X2 of SARS-CoV Urbani / Binding of serum 6 to linear peptides of protein M of SARS-CoV Urbani / Binding of serum 37 to linear peptides of protein M of SARS-CoV Urbani / Binding of serum 6 to looped/cyclic peptides of protein M of SARS-CoV Urbani / Binding of serum 37 to looped/cyclic peptides of protein M of SARS-CoV Urbani / Binding of serum 6 to linear peptides of protein X3 of SARS-CoV Urbani / Binding of serum 37 to linear peptides of protein X3 of SARS-CoV Urbani / Binding of serum 37 to looped/cyclic peptides of protein X3 of SARS-CoV Urbani / Binding of serum 6 to linear peptides of protein X4 of SARS-CoV Urbani / Binding of serum 37 to linear peptides of protein X4 of SARS-CoV Urbani / Binding of serum 37 to looped/cyclic peptides of protein X4 of SARS-CoV Urbani / Binding of serum 6 to linear peptides of protein X5 of SARS-CoV Urbani / Binding of serum 37 to linear peptides of protein X5 of SARS-CoV Urbani / Binding of serum 37 to looped/cyclic peptides of protein X5 of SARS-CoV Urbani / Binding of serum 6 to linear peptides of protein N of SARS-CoV Urbani / Binding of serum 37 to linear peptides of protein N of SARS-CoV Urbani / Binding of serum 6 to linear peptide (PEPSCAN-ELISA) / Binding of serum 1a to looped/cyclic peptides of protein N of SARS-CoV Urbani / Binding of serum 1b to looped/cyclic peptides of protein N of SARS-CoV Urbani / Binding of serum 2 to looped/cyclic peptides of protein N of SARS-CoV Urbani / Binding of serum 6 to looped/cyclic peptides of protein N of SARS-CoV Urbani / Binding of serum 37 to looped/cyclic peptides of protein N of SARS-CoV Urbani / Binding of serum 62 to looped/cyclic peptides of protein N of SARS-CoV Urbani / Binding of serum London to looped/cyclic peptides of protein N of SARS-CoV Urbani / Binding of serum SARS-green to looped/cyclic peptides of protein N of SARS-CoV Urbani: unit not given here
[2] = tested on: control sera (pooled serum of ten healthy LUMC hospital workers; commercial negative donor pooled serum from the Dutch bloodbank); assay type: binding, human; design: Binding of Control serum LUMC to linear peptides / Binding of Control serum Blood-bank to linear peptides / Binding of Control serum LUMC to looped peptides / Binding of Control Serum Blood-Bank to Looped peptides / Binding of Control serum LUMC to linear peptides of the protein M of SARS-CoV Urbani / Binding of Control serum Blood-bank to linear peptides of the protein M of SARS-CoV Urbani / Binding of Control serum LUMC to looped peptides of the protein M of SARS-CoV Urbani / Binding of Control Serum Blood-Bank to Looped peptides of the protein M of SARS-CoV Urbani: unit not given here
[3] = tested on: rabbit serum obtained by immunizing a rabbit with the SARS-CoV strain Frankfurt 1; assay type: binding; design: Binding of a rabbit serum to linear peptides / Binding of a rabbit serum to looped peptides / Rabbit serum linear peptides / Rabbit serum looped peptides / Binding of a rabbit serum to linear peptides of protein N of SARS-CoV Urbani (Rabbit serum linear peptides) / Binding of a rabbit serum to looped/cyclic peptides of protein N of SARS-CoV Urbani (Rabbit serum looped peptides): unit not given here
[4] = tested on: recombinant human anti-SARS-CoV antibody 03-018; assay type: binding; design: Binding of antibody 03-018 to linear peptides of the N protein of SARS-CoV Urbani / Binding of antibody 03-018 to looped/cyclic peptides of the N protein of SARS-CoV Urbani: unit not given here

Sequence	Binding of serum 1a to linear peptides of protein N of SARS-CoV Urbani [1]	Binding of serum 1a to looped/cyclic peptides of protein N of SARS-CoV Urbani [1]	Binding of serum 1b to linear peptides of protein N of SARS-CoV Urbani [1]	Binding of serum 1b to looped/cyclic peptides of protein N of SARS-CoV Urbani [1]	Binding of serum 2 to linear peptides of protein N of SARS-CoV Urbani [1]	Binding of serum 2 to looped/cyclic peptides of protein N of SARS-CoV Urbani [1]	Binding of serum 6 to looped/cyclic peptides of protein N of SARS-CoV Urbani [1]	Binding of serum 37 to looped/cyclic peptides of protein N of SARS-CoV Urbani [1]	Binding of serum 62 to looped/cyclic peptides of protein N of SARS-CoV Urbani [1]	Binding of serum London to looped/cyclic peptides of protein N of SARS-CoV Urbani [1]	Binding of serum SARS-green to looped/cyclic peptides of protein N of SARS-CoV Urbani [1]	Binding of serum SARS-yellow to looped/cyclic peptides of protein N of SARS-CoV Urbani [1]	Binding of Control Serum Blood-Bank to Looped peptides [2]	Binding of Control serum Blood-bank to linear peptides [2]	Binding of Control serum LUMC to linear peptides [2]	Binding of Control serum LUMC to looped peptides [2]	Binding of a rabbit serum to linear peptides of protein N of SARS-CoV Urbani (Rabbit serum linear peptides) [3]	Binding of a rabbit serum to looped/cyclic peptides of protein N of SARS-CoV Urbani (Rabbit serum looped peptides) [3]	Binding of antibody 03-018 to linear peptides of the N protein of SARS-CoV Urbani [4]	Binding of antibody 03-018 to looped/cyclic peptides of the N protein of SARS-CoV Urbani [4]	further results
SAPRITFGGPTDSTD	0.2	0.3	0.2	0.2	0.1	0.2	0.1	0.5	0.3	0.3	0.9	0.4	0.5	0.4	0.5	0.4	0.2	0.5			Binding of serum 6 to linear peptides of protein N of SARS-CoV Urbani [1]: 0.1; Binding of serum 37 to linear peptides of protein N of SARS-CoV Urbani [1]: 0.7; Binding of serum 62 to linear peptides of protein N of SARS-CoV Urbani [1]: 0.6; Binding of serum London to linear peptides of protein N of SARS-CoV Urbani [1]: 0.5; Binding of serum SARS-green to linear peptides of protein N of SARS-CoV Urbani [1]: 0.6; Binding of serum SARS-yellow to linear peptides of protein N of SARS-CoV Urbani [1]: 0.4; Recognition of the peptide by antibody 03-018 [4]: recognized
SASAFFGMSRIGMEV	0.3	0.5	0.2	0.3	0.2	0.6	0.5	0.8	0.6	1.6	0.4	0.9					0.1	0.6	0.1	0.2	Binding of serum 6 to linear peptides of protein N of SARS-CoV Urbani [1]: 0.2; Binding of serum 37 to linear peptides of protein N of SARS-CoV Urbani [1]: 0.7; Binding of serum 62 to linear peptides of protein N of SARS-CoV Urbani [1]: 0.6; Binding of serum London to linear peptides of protein N of SARS-CoV Urbani [1]: 0.5; Binding of serum SARS-green to linear peptides of protein N of SARS-CoV Urbani [1]: 0.4; Binding of serum SARS-yellow to linear peptides of protein N of SARS-CoV Urbani [1]: 0.7; Control Serum Blood-Bank Looped peptides [2]: 0.7; Control serum Blood-bank linear peptides [2]: 0.7; Control serum LUMC linear peptides [2]: 0.6; Control serum LUMC looped peptides [2]: 0.7
SKKPRQKRTATKQYN		0.3		0.1		0.4	0.3	0.6	0.6	0.5	0.1	0.3	0.6	0.8	0.7	0.5	0.2	0.1	0.1	0.2	Binding of serum 1a to linear peptide (PEPSCAN-ELISA) [1]: 0.2; Binding of serum 1b to linear peptide (PEPSCAN-ELISA) [1]: 0.1; Binding of serum 2 to linear peptide (PEPSCAN-ELISA) [1]: 0.3; Binding of serum 6 to linear peptide (PEPSCAN-ELISA) [1]: 0.2; Binding of serum 37 to linear peptide (PEPSCAN-ELISA) [1]: 0.6; Binding of serum 62 to linear peptide (PEPSCAN-ELISA) [1]: 0.7; Binding of serum London to linear peptide (PEPSCAN-ELISA) [1]: 0.5; Binding of serum SARS-green to linear peptide (PEPSCAN-ELISA) [1]: 0.1; Binding of serum SARS-yellow to linear peptide (PEPSCAN-ELISA) [1]: 0.4
SQASSRSSSRSRGNS		0.3		0.2		0.3	0.2	0.5	0.4	0.4	0.0	0.3	0.6	0.7	0.7	0.6	0.1	0.6	0.1	0.2	Binding of serum 1a to linear peptide (PEPSCAN-ELISA) [1]: 0.2; Binding of serum 1b to linear peptide (PEPSCAN-ELISA) [1]: 0.1; Binding of serum 2 to linear peptide (PEPSCAN-ELISA) [1]: 0.2; Binding of serum 6 to linear peptide (PEPSCAN-ELISA) [1]: 0.4; Binding of serum 37 to linear peptide (PEPSCAN-ELISA) [1]: 0.6; Binding of serum 62 to linear peptide (PEPSCAN-ELISA) [1]: 0.6; Binding of serum London to linear peptide (PEPSCAN-ELISA) [1]: 0.4; Binding of serum SARS-green to linear peptide (PEPSCAN-ELISA) [1]: 0.2; Binding of serum SARS-yellow to linear peptide (PEPSCAN-ELISA) [1]: 0.6
